Assays:
Assay type in all cases: cell-based
Settings in all cases: iodinin 10 μg/ml, 72 hours
[1] = tested on: MRC-5 (embryonal lung, normal, human); experiment: MTT assay, cytotoxic effect on MRC-5 cells
Procedure: (§1) Cell growth inhibitory effects were determined by an MTT assay after treating the cell lines with 2, 5, and 10 μg/ml of iodinin for 72 hours. Mean±SE of four independent experiments are shown. The cytotoxic activity of the compound iodinin was tested in vitro in MRC-5, AGS, HeLa, HepG2 and MCF-7 cell lines.
(§2) MRC-5 (embryonal lung, normal, human, BCRC60023), AGS (Human gastric adenocarcinoma, BCRC 60102), HeLa (Human cervical epithelioid carcinoma, BCRC 60005), HepG2 (Human hepatoblastoma, BCRC 60177), and MCF7 (human breast adenocarcinoma, BCRC 60436) were purchased from BCRC, Food Industry Research and Development Institute, Taiwan. […]
(§3) The cytotoxic activities of the compound, iodinin, against all cell lines were assayed by a modified MTT [3-(4,5-dimethylthiazole-2-yl)-2,5-diphenyltetrazolium bromide] […] After 3 days of incubation, the cell numbers for each of the cell lines were determined by the following MTT assay: 20 μl of 1 mg/ml of MTT were added to each well of the plates, and the plates were then incubated at 37° C. for 5 hours. Formazan crystals were redissolved in 100 μl of DMSO (Merck) for 10 minutes via shaking, and the plates were read immediately on an ELISA reader (Bio-Tek) at a wavelength of 540 nm (Mosmann, 1983).

[2] = tested on: HepG2 (Human hepatoblastoma); experiment: MTT assay, cytotoxic effect on HepG2 cells
Procedure: as §1, §2, §3

[3] = tested on: AGS (Human gastric adenocarcinoma); experiment: MTT assay, cytotoxic effect on AGS cells
Procedure: as §1, §2, §3

[4] = tested on: MCF-7 (human breast adenocarcinoma); experiment: MTT assay, cytotoxic effect on MCF-7 cells
Procedure: as §1, §2, §3

[5] = tested on: HeLa (Human cervical epithelioid carcinoma); experiment: MTT assay, cytotoxic effect on HeLa cells
Procedure: as §1, §2, §3

[O-][n+]1c2cccc(O)c2[n+]([O-])c2cccc(O)c21 [iodinin, 1,6-phenazinediol 5,10-dioxide]
percentage of cell survival [1]: 47% | percentage of cell survival [2]: 40% | percentage of cell survival [3]: 8% | percentage of cell survival [4]: 29% | percentage of cell survival [5]: 26%

— patent US20090042894A1, “NOVEL SPECIES OF ACROCARPOSPORA, A METHOD OF PREPARING IODININ, AND THE USES OF IODININ” (FOOD INDUSTRY RESEARCH AND DEVELOPMENT INSTITUTE, priority 2007, published 2009)
